# Laboratory results: BindingDB's records for doi:10.1016/j.bmcl.2007.07.028 (Bristol-Myers Squibb, 2007)
# Assay: Antagonist activity at CCR2 in human PBMCs assessed as inhibition of MCP1-induced chemotaxis
row,SMILES,IC50 [µM]
1,"Cc1ccc(CNC[C@H](NC(=O)CNC(=O)c2cc(C(F)(F)F)ccc2NC(=O)NC(C)C)C(=O)NC(C)(C)C)c(C)c1 [(S)-1-(2-((2-(3-(2,4-dimethylbenzylamino)-1-(tert-butylamino)-1-oxopropan-2-ylamino)-2-oxoethyl)carbamoyl)-4-(trifluoromethyl)phenyl)-3-isopropylurea]",0.24
2,"Cc1ccc(CNC[C@H](NC(=O)CNC(=O)c2cc(C(F)(F)F)ccc2NCc2ccccc2)C(=O)NC(C)(C)C)c(C)c1 [(S)-N-(2-(3-(2,4-dimethylbenzylamino)-1-(tert-butylamino)-1-oxopropan-2-ylamino)-2-oxoethyl)-2-(benzylamino)-5-(trifluoromethyl)benzamide]",0.039
3,"CCNc1ccc(C(F)(F)F)cc1C(=O)NCC(=O)N[C@@H](CNCc1ccc(C)cc1C)C(=O)NC(C)(C)C [(S)-N-(2-(3-(2,4-dimethylbenzylamino)-1-(tert-butylamino)-1-oxopropan-2-ylamino)-2-oxoethyl)-2-(ethylamino)-5-(trifluoromethyl)benzamide]",0.1
4,"CCNc1cc(C(=O)NCC(=O)N[C@@H](CNCc2ccc(C)cc2C)C(=O)NC(C)(C)C)cc(C(F)(F)F)c1 [(S)-N-(2-(3-(2,4-dimethylbenzylamino)-1-(tert-butylamino)-1-oxopropan-2-ylamino)-2-oxoethyl)-3-(ethylamino)-5-(trifluoromethyl)benzamide]",0.19

# Continued, values first:
row,IC50 [µM],SMILES
1,0.26,"Cc1ccc(CNC[C@H](NC(=O)CNC(=O)c2cc(C(F)(F)F)ccc2N)C(=O)NC(C)(C)C)c(C)c1 [(S)-N-(2-(3-(2,4-dimethylbenzylamino)-1-(tert-butylamino)-1-oxopropan-2-ylamino)-2-oxoethyl)-2-amino-5-(trifluoromethyl)benzamide]"
2,> 3,"Cc1ccc(CNC[C@H](NC(=O)CNC(=O)c2cccc(C(F)(F)F)c2)C(=O)NC(C)(C)C)c(C)c1 [(S)-N-(2-(3-(2,4-dimethylbenzylamino)-1-(tert-butylamino)-1-oxopropan-2-ylamino)-2-oxoethyl)-3-(trifluoromethyl)benzamide]"
3,0.72,"Cc1ccc(CNC[C@H](NC(=O)CNC(=O)c2cc(N)cc(C(F)(F)F)c2)C(=O)NC(C)(C)C)c(C)c1 [(S)-N-(2-(3-(2,4-dimethylbenzylamino)-1-(tert-butylamino)-1-oxopropan-2-ylamino)-2-oxoethyl)-3-amino-5-(trifluoromethyl)benzamide]"
4,> 1.5,"Cc1ccc(CNC[C@H](NC(=O)CNC(=O)c2cccc(C(F)(F)F)c2)C(N)=O)c(C)c1 [(S)-N-(2-(3-(2,4-dimethylbenzylamino)-1-amino-1-oxopropan-2-ylamino)-2-oxoethyl)-3-(trifluoromethyl)benzamide]"
